This experiment has as its target T1, DPP-IV from porcine kidneys (Sus scrofa, UniProt P22411).
T1 construct: DPP-IV from porcine kidneys (Sigma, Munich); purchased Sigma, Munich; host or cells: porcine kidney tissue
Kind of experiment: Measurement of the DPP-IV activity (fluorimetric, H-Ala-Pro-AFC substrate). To be noted: substrate H-Ala-Pro-AFC 15 μM, Tris/HCl pH 7.4, room temperature. Format: biochemical. The method, then: Measurement of the DPP-IV Activity:
DPP-IV from porcine kidneys (Sigma, Munich)
H-Ala-Pro-AFC (Bachem, Weil am Rhein)
DPP-IV (1 mU/ml, end concentration)
H-Ala-Pro-AFC (15 μm end concentration)
in Tris/HCl (40 mM, pH 7.4), total volume 0.2 ml
The reaction was performed at room temperature for different periods (typically 10 minutes) and stopped at the end of the reaction by adding 20 μl of ZnCl2 (1 M). The conversion of H-Ala-Pro-AFC was determined fluorimetrically by measuring the emission at 535 nm on excitation at 405 nm. In the case of addition of inhibitors, the buffer volume added was adjusted such that a total volume of the test mixture of 200 μl maintained.
% inhibition at a fixed concentration was calculated as follows: (1-enzyme activityinhibited reaction/enzyme activityuninhibited reaction)×100
IC50 values for inhibitors were determined by varying the inhibitor concentrations in the case of the specified substrate concentration of 15 μM. Ki and Km values were determined by corresponding variation of substrate and inhibitor concentration as described (Dixon, M. and Webb, E. C. (1979) Enzymes, third edition, pp. 47-206, Academic Press). The values for Km, IC50 and Ki were calculated using a commercially available software package (Leatherbarrow, R. J. (1992) GraFit Version 3.0, Erithacus Software Ltd. Staines, U.K.).

Structures can show the parent of a compound that is named as a salt.

T1 sequence (P22411 whole entry): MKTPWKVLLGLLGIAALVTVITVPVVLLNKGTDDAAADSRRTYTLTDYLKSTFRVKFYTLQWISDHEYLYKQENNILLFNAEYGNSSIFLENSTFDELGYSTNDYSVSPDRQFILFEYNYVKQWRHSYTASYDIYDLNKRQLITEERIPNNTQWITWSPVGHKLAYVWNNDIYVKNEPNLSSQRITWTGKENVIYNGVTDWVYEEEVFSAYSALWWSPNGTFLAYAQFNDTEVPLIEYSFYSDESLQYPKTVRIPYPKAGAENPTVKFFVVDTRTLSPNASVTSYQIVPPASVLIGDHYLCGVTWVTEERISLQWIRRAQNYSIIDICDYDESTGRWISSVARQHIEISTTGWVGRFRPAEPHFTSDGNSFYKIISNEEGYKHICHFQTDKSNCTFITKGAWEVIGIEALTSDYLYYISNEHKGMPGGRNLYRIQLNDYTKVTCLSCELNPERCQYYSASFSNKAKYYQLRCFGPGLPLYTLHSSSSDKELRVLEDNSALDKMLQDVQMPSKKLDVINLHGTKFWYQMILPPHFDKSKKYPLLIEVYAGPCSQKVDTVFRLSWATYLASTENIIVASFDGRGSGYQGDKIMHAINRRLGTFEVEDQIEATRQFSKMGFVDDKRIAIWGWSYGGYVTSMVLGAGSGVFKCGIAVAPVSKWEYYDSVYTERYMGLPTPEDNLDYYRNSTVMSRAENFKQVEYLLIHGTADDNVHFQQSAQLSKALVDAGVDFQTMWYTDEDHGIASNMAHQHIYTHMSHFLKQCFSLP

For `CC(C)=CCn1c(N2CCC[C@@H](N)C2)nc2ccc(NC(=O)Cc3ccccc3)cc21` [Example 2], the IC50 (usually the point on the concentration scale where inhibition reaches its midpoint) came to 2700 nM.
Turning to `CC(C)=CCn1c(N2CCC[C@@H](N)C2)nc2ccc(NC(=O)c3ccccc3)cc21` [Example 1, R—N-[2-(3-Aminopiperidin-1-yl)-1-(3-methylbut-2-enyl)-1H-benzimidazol-6-yl]-benzamide trifluoroacetic acid salt], the IC50 came out at 2500 nM.

Values taken from patent US8138207B2, “Aminocarbonyl-substituted 8-N-benzimidazoles, methods for their preparation and their use in pharmaceutical compositions” (Sanofi-Aventis, priority 2005, dated 2012).
